Results published in ChEMBL document CHEMBL1201862, “PubChem BioAssay data set” (2004).
Active and inactive are the calls of the source.

Legend:
[1] = Luminescence Cell-Based Dose Response HTS to Identify Inhibitors of 5'UTR Stem-Loop Driven Prion Protein mRNA Translation in H4 Neuroglioblastoma Cells. [Related pubchem assays: 1827 (Project Summary), 1813 (Primary HTS)]; assay type: functional
[2] = alpha-synuclein stem-loop luciferase translation blockers – H4 neuroglioma cells, luminescence, confirmation (AID 1988); assay type: functional, cell-based
HEK293 = assay: EBV LMP1 TES2 canonical NF-kB signalling blockers – cell-based, HEK293, luciferase, cherry-pick, dose response (AID 588343); assay type: functional; conditions: Homo sapiens
[3] = A549 cell cytotoxicity, dose response, cytotoxicity control, plate reader, cherry-pick, antagonist series (AID 743412); assay type: functional, cell-based
[4] = toxicity toward HepG2 liver cells – cell-based, plate reader, cherry-pick, antagonist series, cytotoxicity control, dose response (AID 743416); assay type: functional
[5] = blockers of bursicon-stimulated LGR2 cAMP reporter – cell-based, HEK293, CRE-luciferase reporter, cherry pick, set 2, dose response (AID 743343); assay type: functional;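 also: transfected cells were stimulated with diluted bursicon conditioned medium after compound addition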
[6] = blockade of melanocortin 4 receptor signaling – cell-based, plate reader, cherry pick, counter-screen for LGR2 antagonist project, dose response (AID 743444); assay type: functional;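 also: transfected HEK 293 cells stimulated with alpha-MSH peptide; potency of inhibitors of the alpha-MSH evoked signal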
[7] = potency of ADAM10 substrate cleavage blockers – biochemical, QFRET, dose response (AID 743254);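 also: ADAM10 enzyme with the DM2 quenched FRET peptide as substrate; EDANS fluorescence gain as the protease cuts the substrate; inhibitor potency against ADAM10 proteolytic activity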
[8] = molecular target: T1, Disintegrin and metalloproteinase domain-containing protein 17 (Homo sapiens, UniProt P78536); assay: inhibition of ADAM17 substrate cleavage – biochemical, quenched FRET substrate, counter-screen for ADAM10 exosite inhibitor project, dose response (AID 743253)
T1 sequence (P78536 whole entry, the tested form may be a part): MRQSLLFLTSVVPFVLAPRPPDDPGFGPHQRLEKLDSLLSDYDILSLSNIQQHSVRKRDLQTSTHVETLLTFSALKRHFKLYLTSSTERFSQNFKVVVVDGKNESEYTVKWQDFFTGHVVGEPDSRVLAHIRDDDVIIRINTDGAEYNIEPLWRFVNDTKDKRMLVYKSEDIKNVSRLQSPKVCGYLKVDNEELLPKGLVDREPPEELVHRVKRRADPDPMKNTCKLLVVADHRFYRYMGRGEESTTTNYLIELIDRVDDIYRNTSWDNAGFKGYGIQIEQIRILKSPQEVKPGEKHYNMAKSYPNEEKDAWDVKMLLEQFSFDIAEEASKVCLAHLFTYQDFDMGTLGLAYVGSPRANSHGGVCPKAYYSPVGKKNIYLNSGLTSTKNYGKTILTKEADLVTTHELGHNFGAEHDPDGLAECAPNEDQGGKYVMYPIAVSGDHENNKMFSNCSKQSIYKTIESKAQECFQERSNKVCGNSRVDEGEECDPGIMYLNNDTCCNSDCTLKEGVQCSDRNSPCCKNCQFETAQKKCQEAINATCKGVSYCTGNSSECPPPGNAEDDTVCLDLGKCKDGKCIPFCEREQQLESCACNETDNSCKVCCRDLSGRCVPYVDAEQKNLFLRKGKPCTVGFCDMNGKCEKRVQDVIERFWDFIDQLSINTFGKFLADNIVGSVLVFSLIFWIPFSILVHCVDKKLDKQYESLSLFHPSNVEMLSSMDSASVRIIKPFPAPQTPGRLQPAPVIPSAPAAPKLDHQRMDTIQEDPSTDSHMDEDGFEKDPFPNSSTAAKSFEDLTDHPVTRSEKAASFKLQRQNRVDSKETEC

Kallikrein-7 = Kallikrein-7 (Homo sapiens, UniProt P49862); assay: Fluorescence Intensity-based biochemical primary high throughput dose response assay to identify activators of kallikrein-7 (K7) zymogen.
Chain of Kallikrein-7 (P49862 whole entry): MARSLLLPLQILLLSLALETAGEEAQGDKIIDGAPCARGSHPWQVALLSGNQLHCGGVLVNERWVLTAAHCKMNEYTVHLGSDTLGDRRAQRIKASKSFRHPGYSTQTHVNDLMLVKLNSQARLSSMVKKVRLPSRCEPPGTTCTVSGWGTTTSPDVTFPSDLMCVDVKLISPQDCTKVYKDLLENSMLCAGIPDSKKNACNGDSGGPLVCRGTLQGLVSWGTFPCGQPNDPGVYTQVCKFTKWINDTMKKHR

Cytochrome P450 1A2 = molecular target: T2, Cytochrome P450 1A2 (Homo sapiens, UniProt P05177);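 also: PubChem cytochrome P450 panel assay, CYP1A2 panel member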
T2 sequence (P05177 whole entry): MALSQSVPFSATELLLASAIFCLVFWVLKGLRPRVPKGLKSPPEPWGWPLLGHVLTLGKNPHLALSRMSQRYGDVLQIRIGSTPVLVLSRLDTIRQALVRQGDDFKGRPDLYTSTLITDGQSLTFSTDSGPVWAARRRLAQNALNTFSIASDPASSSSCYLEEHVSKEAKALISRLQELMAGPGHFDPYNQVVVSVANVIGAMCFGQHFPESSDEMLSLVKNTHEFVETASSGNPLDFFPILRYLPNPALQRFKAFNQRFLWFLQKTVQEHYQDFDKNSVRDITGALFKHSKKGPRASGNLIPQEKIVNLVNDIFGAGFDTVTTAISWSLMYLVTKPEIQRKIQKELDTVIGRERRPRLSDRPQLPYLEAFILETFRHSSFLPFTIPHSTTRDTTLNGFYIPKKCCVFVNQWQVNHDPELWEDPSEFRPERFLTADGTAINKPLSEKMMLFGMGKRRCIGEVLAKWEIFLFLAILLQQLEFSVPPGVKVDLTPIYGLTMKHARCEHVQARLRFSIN

H9c2 = assay: cells; assay type: functional, cell-based; conditions: Rattus norvegicus, H9c2, Myocardium;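 also: confirmatory concentration-response retest of ultra-high-throughput screening hits for modulation of myocardial damage; cell death induced by hydrogen peroxide oxidative stress; compound pretreatment for 60 min then peroxide exposure for 2 h; potency is for protecting the cells against peroxide damage rather than for killing them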
Galanin receptor type 3 = Galanin receptor type 3 (Homo sapiens, UniProt O60755); assay: Fluorescence-based cell-based primary high throughput dose response assay to identify antagonists of the Galanin Receptor 3 (GalR3).; assay type: functional
Chain of Galanin receptor type 3 (O60755 whole entry): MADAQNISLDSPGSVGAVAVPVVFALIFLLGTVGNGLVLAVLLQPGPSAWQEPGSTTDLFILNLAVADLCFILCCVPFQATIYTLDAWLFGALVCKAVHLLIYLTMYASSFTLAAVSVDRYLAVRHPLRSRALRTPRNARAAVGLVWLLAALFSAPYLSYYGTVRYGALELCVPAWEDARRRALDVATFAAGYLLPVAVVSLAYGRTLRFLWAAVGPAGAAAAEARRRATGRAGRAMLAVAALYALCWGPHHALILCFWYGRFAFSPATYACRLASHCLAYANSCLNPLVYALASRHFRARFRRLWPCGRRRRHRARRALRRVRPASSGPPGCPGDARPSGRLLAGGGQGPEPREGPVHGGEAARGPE

cells = assay type: functional, cell-based; conditions: HEK-CNG
INS1 = assay: INS-1E survival protection against cytokine death – cell-based, luminescence, retest, dose response (AID 449756); assay type: functional; conditions: Rattus norvegicus;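 also: cell death triggered by IL-1 beta plus TNF-alpha plus IFN-gamma mixture; protective hits raise ATP signal compared with cytokine alone wells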
Protein Wnt-3a = Protein Wnt-3a (Mus musculus, UniProt P27467); assay: antagonism of Wnt3a pathway luciferase reporter – Wnt-LIGHT cells, luminescence, selectivity assay for Gli-SUFU antagonist project, dose response (AID 651570); assay type: functional; conditions: read-out: IC50_Mean;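 also: Wnt-LIGHT reporter cells stimulated with conditioned medium from Wnt3a-producing cells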
Chain of Protein Wnt-3a (P27467 whole entry): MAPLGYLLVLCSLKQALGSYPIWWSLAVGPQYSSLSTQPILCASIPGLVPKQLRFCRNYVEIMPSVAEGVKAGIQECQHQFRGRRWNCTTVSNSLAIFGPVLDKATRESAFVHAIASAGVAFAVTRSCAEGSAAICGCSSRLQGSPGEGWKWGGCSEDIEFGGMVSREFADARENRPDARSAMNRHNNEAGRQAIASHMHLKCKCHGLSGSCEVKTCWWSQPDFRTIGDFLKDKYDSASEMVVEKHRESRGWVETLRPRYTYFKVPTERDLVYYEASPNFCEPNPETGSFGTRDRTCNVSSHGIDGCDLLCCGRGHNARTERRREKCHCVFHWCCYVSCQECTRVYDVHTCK

[9] = molecular target: T3, COUP transcription factor 2 (Homo sapiens, UniProt P24468); assay: Luminescence-based cell-based high throughput dose response assay to identify inhibitors of COUP-TFII (NR2F2).; assay type: functional;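 also: HEK293 cells transiently cotransfected with COUP-TFII expression vector and reporter; luciferase reporter luminescence driven by COUP-TFII from the pX2-168 reporter plasmid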
T3 sequence (P24468 whole entry): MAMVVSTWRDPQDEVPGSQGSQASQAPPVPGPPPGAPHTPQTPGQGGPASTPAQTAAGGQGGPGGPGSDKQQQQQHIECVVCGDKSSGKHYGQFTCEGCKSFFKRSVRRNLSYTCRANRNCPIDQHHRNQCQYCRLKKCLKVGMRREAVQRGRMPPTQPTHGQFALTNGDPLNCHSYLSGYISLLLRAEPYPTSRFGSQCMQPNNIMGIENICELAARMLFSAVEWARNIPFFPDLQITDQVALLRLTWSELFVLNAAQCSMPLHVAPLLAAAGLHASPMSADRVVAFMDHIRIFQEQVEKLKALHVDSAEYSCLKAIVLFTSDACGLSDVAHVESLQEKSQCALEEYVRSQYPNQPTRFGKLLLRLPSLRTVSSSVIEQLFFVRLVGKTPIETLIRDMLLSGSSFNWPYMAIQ

[10] = general mammalian cell viability loss – inhibitor set, cherry-pick, set 2, cytotoxicity control for miR-122 modulator project, dose response (AID 720697); assay type: functional, cell-based
[11] = viability of PTEN-deleted HCT116 cells – cell-based, HCT116 PTEN knockout, dose response (AID 1047); assay type: functional;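 also: HCT116 colon tumor cells with PTEN knocked out; cells exposed to compound for 60 hours before readout; potency for loss of cell viability measured by luminescence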
[12] = viability of HCT116 lacking mutant beta-catenin – cell-based, human colon tumor, dose response (AID 1045); assay type: functional;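 also: HCT116 colon tumor cells with beta catenin knocked out; cells exposed to compound for 60 hours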
[13] = inhibition of ADAM10 peptide cleavage – biochemical, FRET peptide substrate, recombinant human ADAM10, selectivity assay for ADAM17 exosite inhibitor project, dose response (AID 743259);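 also: ADAM10 enzyme cleaving a FRET peptide substrate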
[14] = molecular target: T4, Heat shock factor protein 1 (Mus musculus, UniProt P38532); assay: enhancement of HSF1-driven luciferase signal – cell-based, NIH3T3, luminescence, dose retest, confirmation (AID 435004); assay type: functional;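 also: stress induced by proteasome inhibitor MG132 added 30 min after compound; luciferase reporter driven by HSF1 response element in NIH3T3 cells; actives raise luminescence as potentiators of the MG132 stress response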
T4 sequence (P38532 whole entry): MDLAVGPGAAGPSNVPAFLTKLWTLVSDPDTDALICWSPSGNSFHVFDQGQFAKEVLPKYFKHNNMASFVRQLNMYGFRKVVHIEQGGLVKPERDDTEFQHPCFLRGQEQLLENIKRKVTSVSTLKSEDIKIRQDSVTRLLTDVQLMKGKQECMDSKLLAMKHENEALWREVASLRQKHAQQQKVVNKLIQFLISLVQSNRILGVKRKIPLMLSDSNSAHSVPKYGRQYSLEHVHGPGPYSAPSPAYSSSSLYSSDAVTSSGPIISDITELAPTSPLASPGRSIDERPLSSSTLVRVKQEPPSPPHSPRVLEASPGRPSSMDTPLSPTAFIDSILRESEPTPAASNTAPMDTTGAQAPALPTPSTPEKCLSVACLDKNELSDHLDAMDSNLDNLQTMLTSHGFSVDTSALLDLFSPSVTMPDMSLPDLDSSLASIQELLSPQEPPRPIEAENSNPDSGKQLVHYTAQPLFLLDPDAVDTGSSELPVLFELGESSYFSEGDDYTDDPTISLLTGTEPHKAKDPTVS

[15] = molecular target: T1, Disintegrin and metalloproteinase domain-containing protein 17; assay: exosite inhibitors of ADAM17, dose response, biochemical (AID 743260)

O=C(NCCc1ccccc1)c1ccc2nccnc2c1
EC50 [1]: 9.34 µM (active)
EC50 [2]: 9.37 µM (active)
AC50 (HEK293): 3.05 µM (active)
AC50 [3]: 22.1 µM (active)
AC50 [4]: 20.3 µM (active)
AC50 [5]: 5 µM (active)
AC50 [6]: 4.77 µM (active)

CC(C)C[C@H](NC(=O)c1[nH]cnc1C(=O)Nc1ccc(CNC(=O)OC(C)(C)C)cc1)C(=O)OC(C)(C)C
IC50 [7]: > 69.5 µM (inactive)

CC(C)C[C@H](NC(=O)c1nc[nH]c1C(=O)Nc1ccc(CNC(=O)OC(C)(C)C)cc1)C(=O)OC(C)(C)C
IC50 [8]: > 69.5 µM (inactive)

CCC(C)C(NS(=O)(=O)c1ccc(C)cc1)C(=O)Oc1ccc2c3c(c(=O)oc2c1)CCC3 (stereo not given)
EC50 (Kallikrein-7): > 69.5 µM (inactive)
AC50 (Cytochrome P450 1A2): 11.2 µM (inconclusive)

Cc1noc(C)c1Cn1nc(C(=O)O)c2ccccc2c1=O
IC50 (H9c2): 18.6 µM (active)
IC50 (Galanin receptor type 3): > 29.9 µM (inactive)
EC50 (cells): > 29.9 µM (inactive)

NC(=O)c1c(-c2ccc(Cl)cc2Cl)csc1NC(=O)Cc1ccccc1
AC50 (INS1): 2.86 µM (active)
IC50 (Protein Wnt-3a): 1.91 µM (active)
IC50 (Galanin receptor type 3): 0.513 µM (active)
EC50 (cells): > 29.9 µM (inactive)
IC50 [9]: 5.15 µM (active)

CC(=O)Nc1ccc(-c2cc(-c3ccc(NC(C)=O)cc3)nc(-c3ccc(NC(C)=O)cc3)n2)cc1
AC50 [10]: 8.27 µM (active)

COc1cc(-c2nc(-c3ccc4c(c3)-c3ccccc3S4(=O)=O)c(-c3ccccc3)[nH]2)cc(OC)c1O
EC50 [11]: 14 µM (active)
EC50 [12]: 19.8 µM (active)
IC50 [13]: > 69.5 µM (inactive)

COc1cc(-c2nc(-c3ccccc3)c(-c3ccc4c(c3)-c3ccccc3S4(=O)=O)[nH]2)cc(OC)c1O
EC50 [14]: 101 µM (active)
IC50 [15]: > 69.5 µM (inactive)
